Test results reported in patent US20060057669A1, “Inactive transcription factor tif-ia and uses thereof” (priority 2002, published 2006).
Read-outs that look alike come from different tables or passages of the source.

Assays:
Pol I transcription [1] = test: In vitro transcription: TIF-IA mutants added to nuclear extract from exponentially growing FM3A cells; type: biochemical, murine; settings: 20 and 40 ng added to 15 ug nuclear extract
Pol I transcription [2] = test: Complementation of Pol I transcription in nuclear extracts from rapamycin-treated FM3A cells; type: biochemical
Description: (B) Complementation of transcriptional activity in nuclear extracts from rapamycin-treated cells. Transcription reactions contained nuclear extracts (30 μg) from untreated (NE) or rapamycin-treated (NERapa) FM3A cells. In lanes 3-7, fractions containing partially purified Pol I transcription factors were added to NERapa-containing reactions.
(C) TIF-IA activates transcription in nuclear extracts form rapamycin-treated cells. Reactions were complemented with either 1 μl (lanes 2 and 5) of cellular TIF-IA (PL-650 fraction) or 20 ng (lanes 3 and 6) of immunopurified recombinant TIF-IA that has been expressed in SF9 cells.
(A) mTOR rescues transcription in vitro. Pol I transcription was assayed in nuclear extracts from rapamycin-treated FM3A cells. Reactions were supplemented with 50 ng TIF-IA (lane 1) or 10 ng, 20 ng and 30 ng of HA-mTOR (lanes 3-5).
(B) S6K1 activates Pol I transcription in extracts from rapamycin-treated cells. NERapa was supplemented with 50 ng TIF-IA (lane 1) or 100, 150 and 200 ng of GST-S6K1 (lanes 3-5) or GST-S6K1dd (lanes 6-8).
Nuclear extracts were prepared from exponentially growing (8×10^5 cells/ml), density-arrested or PD98059-treated (CN Bioscience, Bad Soden, Germany) 40 μM, 0.5 hr) or rapamycin-treated FM3A cells (ATCC, Manassas, USA). 25 μl assays contained 50 ng of template DNA (pMr600/EcoRI), 30 μg nuclear extract proteins and 12 mM Hepes-KOH, [pH8.0], 0.1 mM EDTA, 5 mM MgCl2, 80 mM KCl, 10 mM creatine phosphate, 12% (v/v) glycerol, 0.66 mM each of ATP, GTP and CTP, 0.01 mM UTP and 0.5 μCi [α-^32P]UTP (5000 Ci/mmol). After incubation for 60 min at 30° C., RNA was extracted and analyzed on non-denaturing 5% polyacrylamide gels
mTOR and S6K1 were purified from HEK293T cells overexpressing HA-tagged mTOR or GST/myc-tagged S6K1, respectively. 5×10^6 cells were lysed in 0.8 ml IP buffer, centrifuged at 10,000×g for 20 min, and the supernatants were incubated for 4 hr at 4° C. with either 15 μg anti-HA antibodies bound to 20 μl protein G-agarose (for HA-mTOR) or 20 μl packed GST-glutathione beads (for GST-myc-S6K1). […]

In the case of “TIF-IA: wild-type human transcription initiation factor TIF-IA, accession No. AJ272050”, the “effect on transcriptional activity of extracts from exponentially growing cells” value (Pol I transcription [1]) is reported as “not stimulated by exogenous TIF-IA”, the “rescue of Pol I transcription in extracts from rapamycin-treated cells” value (Pol I transcription [2]) is reported as “relieved rapamycin-mediated transcriptional repression” and the “rescue of Pol I transcription in extracts from rapamycin-treated cells” value (Pol I transcription [2]; listed as recombinant TIF-IA) is reported as “restored transcriptional activity”.
